Earlier results as cited in patent publication US4663309A, “Novel peptide hormones with calcitonin-like activity” (University Patents, Inc., priority 1985, dated 1987).

Key:
[1] = literature value; cited from earlier work
[2] = biological target: T1, calcitonin receptors (brain particulate fraction) (Rattus norvegicus, UniProt P32214); parameters: from tissue; settings: rat brain homogenates; literature value; read-out: IC50, [125I]-SCT-I binding to rat brain, value found by Nakamuta et al.; cited from earlier work
T1 sequence (P32214 25-516): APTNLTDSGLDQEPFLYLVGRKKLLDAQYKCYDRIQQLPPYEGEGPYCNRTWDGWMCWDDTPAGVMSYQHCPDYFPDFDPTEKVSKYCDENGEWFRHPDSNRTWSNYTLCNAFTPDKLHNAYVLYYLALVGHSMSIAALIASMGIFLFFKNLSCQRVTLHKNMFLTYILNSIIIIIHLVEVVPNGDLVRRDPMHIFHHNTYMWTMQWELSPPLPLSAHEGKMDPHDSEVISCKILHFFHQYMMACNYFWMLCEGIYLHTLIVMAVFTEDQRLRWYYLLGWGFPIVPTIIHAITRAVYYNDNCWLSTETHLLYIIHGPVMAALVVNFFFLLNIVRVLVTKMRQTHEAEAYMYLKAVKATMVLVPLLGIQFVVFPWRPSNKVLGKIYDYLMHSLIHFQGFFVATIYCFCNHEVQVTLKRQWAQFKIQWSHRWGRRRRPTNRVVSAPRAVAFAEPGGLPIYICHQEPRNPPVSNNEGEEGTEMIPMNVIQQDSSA

In the case of porcine calcitonin [PCT], the “α-helicity in 50% 2-chloroethanol (Brewer and Edelhoch)” value [1] is given as 50% and the IC50 [2] is given as 17 nM.
